According to US20230391768A2, “IMIDAZOPYRIDINE DERIVATIVES AND AZA-IMIDAZOPYRIDINE DERIVATIVES AS JANUS KINASE 2 INHIBITORS AND USES THEREOF” (Dana-Farber Cancer Institute, Inc., priority 2018, published 2023):

How the values were obtained:
Test in all cases: KINOMEscan
Format in all cases: binding
FLT3 (K663Q) = FLT3 (K663Q) (Homo sapiens (Human), UniProt P36888, K663Q); conditions: read-out: percent of control
Description: (§1) In vitro profiling of Compound I-2 (1 μM) was performed using the DiscoveRx KINOMEscan® platform.

MAST1 = MAST1 (Homo sapiens (Human), UniProt Q9Y2H9); conditions: read-out: percent of control
Description: as §1

[1] = target: RSK3 (Kin.Dom.2-C-terminal) (Homo sapiens (Human), UniProt Q15349); conditions: read-out: percent of control
Sequence of RSK3 (Kin.Dom.2-C-terminal) (Q15349 415-672): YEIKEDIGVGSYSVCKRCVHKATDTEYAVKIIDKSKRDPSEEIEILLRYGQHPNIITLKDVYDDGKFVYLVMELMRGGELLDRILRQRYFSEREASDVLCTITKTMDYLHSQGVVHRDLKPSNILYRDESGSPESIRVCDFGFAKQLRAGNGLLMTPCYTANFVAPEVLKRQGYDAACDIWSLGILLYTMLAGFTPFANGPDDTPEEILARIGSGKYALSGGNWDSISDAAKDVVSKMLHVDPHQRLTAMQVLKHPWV
Description: as §1

VEGFR2 = VEGFR2 (Homo sapiens (Human), UniProt P35968); conditions: read-out: percent of control
Description: as §1

MAP3K1 = MAP3K1 (Homo sapiens (Human), UniProt Q13233); conditions: read-out: percent of control
Description: as §1

CSNK1E = CSNK1E (Homo sapiens (Human), UniProt P49674); conditions: read-out: percent of control
Description: as §1

CAMK1G = CAMK1G (Homo sapiens (Human), UniProt Q96NX5); conditions: read-out: percent of control
Description: as §1

EGFR(T790M) = EGFR(T790M) (Homo sapiens (Human), UniProt P00533, T790M); conditions: read-out: percent of control
Description: as §1

STK35 = STK35 (Homo sapiens (Human), UniProt Q8TDR2); conditions: read-out: percent of control
Sequence of STK35 (Q8TDR2 whole entry): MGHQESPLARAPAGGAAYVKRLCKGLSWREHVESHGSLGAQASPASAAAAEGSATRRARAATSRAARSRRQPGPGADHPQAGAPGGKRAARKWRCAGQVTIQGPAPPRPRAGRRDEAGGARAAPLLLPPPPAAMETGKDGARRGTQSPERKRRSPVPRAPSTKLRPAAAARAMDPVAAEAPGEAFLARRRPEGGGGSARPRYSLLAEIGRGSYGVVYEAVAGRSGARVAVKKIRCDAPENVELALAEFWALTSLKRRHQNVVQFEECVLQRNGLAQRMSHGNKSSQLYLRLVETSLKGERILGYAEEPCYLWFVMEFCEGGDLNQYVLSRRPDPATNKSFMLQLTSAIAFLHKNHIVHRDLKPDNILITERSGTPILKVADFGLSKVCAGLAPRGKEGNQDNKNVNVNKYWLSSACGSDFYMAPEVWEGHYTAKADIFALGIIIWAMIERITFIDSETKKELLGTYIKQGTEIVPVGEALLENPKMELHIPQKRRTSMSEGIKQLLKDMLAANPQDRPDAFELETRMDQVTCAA
Description: as §1

PIK3CA(H1047Y) = PIK3CA(H1047Y) (Homo sapiens (Human), UniProt P42336, H1047Y); conditions: read-out: percent of control
Description: as §1

MELK = MELK (Homo sapiens (Human), UniProt Q14680); conditions: read-out: percent of control
Description: as §1

SRMS = SRMS (Homo sapiens (Human), UniProt Q9H3Y6); conditions: read-out: percent of control
Description: as §1

LTK = LTK (Homo sapiens (Human), UniProt P29376); conditions: read-out: percent of control
Description: as §1

p38-alpha = p38-alpha (Homo sapiens (Human), UniProt Q16539); conditions: read-out: percent of control
Description: as §1

BRSK1 = BRSK1 (Homo sapiens (Human), UniProt Q8TDC3); conditions: read-out: percent of control
Description: as §1

[2] = target: RSK2 (Kin.Dom.2-C-terminal) (Homo sapiens (Human), UniProt P51812); conditions: read-out: percent of control
Sequence of RSK2 (Kin.Dom.2-C-terminal) (P51812 422-679): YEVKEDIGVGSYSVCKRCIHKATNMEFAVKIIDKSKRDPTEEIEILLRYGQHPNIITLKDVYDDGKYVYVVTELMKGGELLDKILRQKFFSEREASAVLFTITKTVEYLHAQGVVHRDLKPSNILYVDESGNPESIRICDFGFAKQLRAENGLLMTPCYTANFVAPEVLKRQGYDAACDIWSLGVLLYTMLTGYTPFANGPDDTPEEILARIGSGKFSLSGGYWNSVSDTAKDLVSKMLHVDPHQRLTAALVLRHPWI
Description: as §1

SRPK1 = SRPK1 (Homo sapiens (Human), UniProt Q96SB4); conditions: read-out: percent of control
Description: as §1

PKN2 = PKN2 (Homo sapiens (Human), UniProt Q16513); conditions: read-out: percent of control
Description: as §1

EGFR(L858R, T790M) = EGFR(L858R, T790M) (Homo sapiens (Human), UniProt P00533, L858R/T790M); conditions: read-out: percent of control
Sequence of EGFR(L858R, T790M) (P00533 25-1210 T790M/L858R): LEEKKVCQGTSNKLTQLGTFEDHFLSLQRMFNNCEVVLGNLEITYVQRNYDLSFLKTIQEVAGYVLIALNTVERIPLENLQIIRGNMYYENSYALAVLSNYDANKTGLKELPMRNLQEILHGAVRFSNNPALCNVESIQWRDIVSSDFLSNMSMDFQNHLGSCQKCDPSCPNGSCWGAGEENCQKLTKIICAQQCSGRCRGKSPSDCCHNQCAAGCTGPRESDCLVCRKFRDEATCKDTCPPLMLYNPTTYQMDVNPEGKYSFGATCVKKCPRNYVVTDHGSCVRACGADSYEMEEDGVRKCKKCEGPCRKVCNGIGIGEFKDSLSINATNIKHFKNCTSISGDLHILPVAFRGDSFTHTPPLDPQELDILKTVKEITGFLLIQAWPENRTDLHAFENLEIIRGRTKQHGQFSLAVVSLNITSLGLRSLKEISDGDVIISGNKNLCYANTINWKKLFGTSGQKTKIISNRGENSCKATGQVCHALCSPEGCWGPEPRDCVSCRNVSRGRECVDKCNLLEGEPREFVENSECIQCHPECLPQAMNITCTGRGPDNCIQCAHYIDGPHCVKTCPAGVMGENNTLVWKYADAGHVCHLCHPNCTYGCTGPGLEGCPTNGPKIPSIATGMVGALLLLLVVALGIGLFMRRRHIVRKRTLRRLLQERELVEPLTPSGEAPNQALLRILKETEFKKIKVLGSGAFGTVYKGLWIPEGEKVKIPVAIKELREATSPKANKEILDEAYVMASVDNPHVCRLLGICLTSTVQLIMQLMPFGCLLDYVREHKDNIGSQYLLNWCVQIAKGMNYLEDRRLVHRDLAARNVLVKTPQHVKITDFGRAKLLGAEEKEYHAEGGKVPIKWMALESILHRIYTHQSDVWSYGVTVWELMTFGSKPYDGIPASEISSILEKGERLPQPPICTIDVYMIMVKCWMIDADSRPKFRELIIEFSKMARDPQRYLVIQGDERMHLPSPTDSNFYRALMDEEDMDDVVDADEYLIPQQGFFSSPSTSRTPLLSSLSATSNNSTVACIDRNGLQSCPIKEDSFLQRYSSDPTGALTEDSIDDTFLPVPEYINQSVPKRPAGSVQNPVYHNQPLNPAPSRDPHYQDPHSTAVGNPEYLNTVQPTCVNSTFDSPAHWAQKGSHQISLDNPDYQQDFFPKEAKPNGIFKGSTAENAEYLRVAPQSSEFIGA
Description: as §1

YSK4 = YSK4 (Homo sapiens (Human), UniProt Q56UN5); conditions: read-out: percent of control
Description: as §1

EPHA1 = EPHA1 (Homo sapiens (Human), UniProt P21709); conditions: read-out: percent of control
Description: as §1

PRKG1 = PRKG1 (Homo sapiens (Human), UniProt Q13976); conditions: read-out: percent of control
Sequence of PRKG1 (Q13976 whole entry): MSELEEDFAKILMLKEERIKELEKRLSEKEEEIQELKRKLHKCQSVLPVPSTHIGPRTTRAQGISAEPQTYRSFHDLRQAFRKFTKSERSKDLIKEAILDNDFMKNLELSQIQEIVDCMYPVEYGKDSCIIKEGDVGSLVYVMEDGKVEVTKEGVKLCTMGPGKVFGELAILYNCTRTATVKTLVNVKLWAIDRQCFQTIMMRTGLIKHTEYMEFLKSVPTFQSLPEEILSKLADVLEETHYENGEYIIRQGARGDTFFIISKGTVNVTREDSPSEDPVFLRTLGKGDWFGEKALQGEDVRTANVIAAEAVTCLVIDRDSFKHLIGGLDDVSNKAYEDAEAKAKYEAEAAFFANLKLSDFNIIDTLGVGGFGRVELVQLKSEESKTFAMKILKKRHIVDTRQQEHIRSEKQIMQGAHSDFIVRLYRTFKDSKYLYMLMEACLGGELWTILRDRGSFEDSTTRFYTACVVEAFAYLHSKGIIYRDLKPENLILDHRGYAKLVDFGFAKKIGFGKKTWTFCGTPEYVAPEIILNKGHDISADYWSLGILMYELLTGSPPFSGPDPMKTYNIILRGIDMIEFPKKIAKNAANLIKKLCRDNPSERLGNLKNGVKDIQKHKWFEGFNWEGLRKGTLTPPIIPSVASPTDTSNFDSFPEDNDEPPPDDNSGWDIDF
Description: as §1

SRC = SRC (Homo sapiens (Human), UniProt P12931); conditions: read-out: percent of control
Description: as §1

JNK1 = JNK1 (Homo sapiens (Human), UniProt P45983); conditions: read-out: percent of control
Sequence of JNK1 (P45983 whole entry): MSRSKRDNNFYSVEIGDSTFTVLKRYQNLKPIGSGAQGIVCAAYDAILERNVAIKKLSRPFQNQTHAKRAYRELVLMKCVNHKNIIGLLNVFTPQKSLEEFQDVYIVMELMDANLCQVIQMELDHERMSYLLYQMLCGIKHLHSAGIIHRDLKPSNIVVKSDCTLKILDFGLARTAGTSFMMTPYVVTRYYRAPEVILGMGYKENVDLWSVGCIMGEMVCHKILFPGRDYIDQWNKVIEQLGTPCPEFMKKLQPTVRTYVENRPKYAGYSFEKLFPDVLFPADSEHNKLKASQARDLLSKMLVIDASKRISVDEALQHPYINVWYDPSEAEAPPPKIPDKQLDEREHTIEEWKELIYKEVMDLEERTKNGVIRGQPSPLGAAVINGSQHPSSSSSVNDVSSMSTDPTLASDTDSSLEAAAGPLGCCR
Description: as §1

FLT3 (N841I) = FLT3 (N841I) (Homo sapiens (Human), UniProt P36888, N841I); conditions: read-out: percent of control
Description: as §1

BUB1 = BUB1 (Homo sapiens (Human), UniProt O43683); conditions: read-out: percent of control
Description: as §1

HUNK = HUNK (Homo sapiens (Human), UniProt P57058); conditions: read-out: percent of control
Description: as §1

CAMK1D = CAMK1D (Homo sapiens (Human), UniProt Q8IU85); conditions: read-out: percent of control
Sequence of CAMK1D (Q8IU85 whole entry): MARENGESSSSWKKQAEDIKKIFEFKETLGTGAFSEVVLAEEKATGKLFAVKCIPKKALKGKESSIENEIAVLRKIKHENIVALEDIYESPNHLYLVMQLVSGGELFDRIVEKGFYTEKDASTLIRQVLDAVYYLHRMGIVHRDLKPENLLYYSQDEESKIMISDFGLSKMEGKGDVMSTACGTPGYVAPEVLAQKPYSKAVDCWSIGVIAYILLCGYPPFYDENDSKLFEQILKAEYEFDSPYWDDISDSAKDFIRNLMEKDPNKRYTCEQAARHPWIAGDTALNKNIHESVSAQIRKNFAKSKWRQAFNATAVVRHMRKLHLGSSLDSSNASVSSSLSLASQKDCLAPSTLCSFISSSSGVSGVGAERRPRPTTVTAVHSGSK
Description: as §1

FLT3 (R834Q) = FLT3 (R834Q) (Homo sapiens (Human), UniProt P36888, R834Q); conditions: read-out: percent of control
Description: as §1

PDGFRA = PDGFRA (Homo sapiens (Human), UniProt P16234); conditions: read-out: percent of control
Description: as §1

LOK = LOK (Homo sapiens (Human), UniProt O94804); conditions: read-out: percent of control
Description: as §1

[3] = target: JAK3(JH1domain-catalytic) (Homo sapiens (Human), UniProt P52333); conditions: for remaining binding at 1 µM: JAK3(JH1domain-catalytic), read-out: percent of control
Sequence of JAK3(JH1domain-catalytic) (P52333 822-1111): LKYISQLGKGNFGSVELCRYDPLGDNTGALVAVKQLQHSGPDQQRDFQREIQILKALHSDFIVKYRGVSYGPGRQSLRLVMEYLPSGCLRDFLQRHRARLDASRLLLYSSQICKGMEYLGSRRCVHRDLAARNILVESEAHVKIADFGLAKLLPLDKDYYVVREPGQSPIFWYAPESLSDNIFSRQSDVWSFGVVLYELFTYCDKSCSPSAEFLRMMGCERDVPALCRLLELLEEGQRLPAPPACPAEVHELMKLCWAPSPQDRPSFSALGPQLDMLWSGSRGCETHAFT
Description: as §1

PFPK5(P.falciparum) = PFPK5(P.falciparum) (Plasmodium falciparum (isolate 3D7), UniProt P61075); conditions: read-out: percent of control
Description: as §1

NDR1 = NDR1 (Homo sapiens (Human), UniProt Q15208); conditions: read-out: percent of control
Description: as §1

KIT(V559D,T670I) = KIT(V559D,T670I) (Homo sapiens (Human), UniProt P10721, T670I/V559D); conditions: read-out: percent of control
Sequence of KIT(V559D,T670I) (P10721 26-976 V559D/T670I): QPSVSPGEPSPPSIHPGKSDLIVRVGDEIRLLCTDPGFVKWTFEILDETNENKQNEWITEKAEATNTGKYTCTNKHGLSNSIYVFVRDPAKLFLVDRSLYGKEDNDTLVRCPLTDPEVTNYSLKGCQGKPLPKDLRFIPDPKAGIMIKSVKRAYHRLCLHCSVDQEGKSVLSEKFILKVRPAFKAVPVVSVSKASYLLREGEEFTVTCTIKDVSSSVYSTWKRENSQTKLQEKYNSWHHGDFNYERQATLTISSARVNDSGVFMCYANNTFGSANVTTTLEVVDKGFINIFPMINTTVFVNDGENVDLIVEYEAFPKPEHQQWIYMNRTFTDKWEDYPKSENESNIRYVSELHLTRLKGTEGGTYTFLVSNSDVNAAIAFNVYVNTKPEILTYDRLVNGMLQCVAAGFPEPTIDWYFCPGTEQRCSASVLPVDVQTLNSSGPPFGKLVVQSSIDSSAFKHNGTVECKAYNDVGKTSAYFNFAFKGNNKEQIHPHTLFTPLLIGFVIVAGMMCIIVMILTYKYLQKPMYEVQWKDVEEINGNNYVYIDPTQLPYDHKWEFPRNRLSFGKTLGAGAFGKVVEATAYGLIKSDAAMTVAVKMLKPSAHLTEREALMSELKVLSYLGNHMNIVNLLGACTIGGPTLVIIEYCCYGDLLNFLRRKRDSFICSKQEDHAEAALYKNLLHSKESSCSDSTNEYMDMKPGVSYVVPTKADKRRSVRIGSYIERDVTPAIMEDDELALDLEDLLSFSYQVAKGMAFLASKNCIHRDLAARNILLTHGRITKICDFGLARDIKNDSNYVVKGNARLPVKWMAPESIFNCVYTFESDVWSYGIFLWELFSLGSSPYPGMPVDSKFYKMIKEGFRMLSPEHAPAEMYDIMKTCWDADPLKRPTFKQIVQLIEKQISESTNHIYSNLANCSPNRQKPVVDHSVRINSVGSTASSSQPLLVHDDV
Description: as §1

ALK(C1156Y) = ALK(C1156Y) (Homo sapiens (Human), UniProt Q9UM73, C1156Y); conditions: read-out: percent of control
Description: as §1

AMPK-alpha2 = AMPK-alpha2 (Homo sapiens (Human), UniProt P54646); conditions: read-out: percent of control
Description: as §1

CCN1CCN(Cc2cc(NC(=O)c3ccc(C)c(-c4ccc5nc(NC(=O)C6CC6)cn5c4)c3)cc(C(F)(F)F)c2)CC1 [Compound I-6, 3-(2-(cyclopropanecarboxamido)imidazo[1,2-a]pyridin-6-yl)-N-(3-((4-ethylpiperazin-1-yl)methyl)-5-(trifluoromethyl)phenyl)-4-methylbenzamide]
remaining binding at 1 µM (FLT3 (K663Q)): 4.2% | remaining binding at 1 µM (MAST1): 95% | remaining binding at 1 µM [1]: 89% | remaining binding at 1 µM (VEGFR2): 2% | remaining binding at 1 µM (MAP3K1): 94% | remaining binding at 1 µM (CSNK1E): 93% | remaining binding at 1 µM (CAMK1G): 100% | remaining binding at 1 µM (EGFR(T790M)): 15% | remaining binding at 1 µM (STK35): 59% | remaining binding at 1 µM (PIK3CA(H1047Y)): 92% | remaining binding at 1 µM (MELK): 100% | remaining binding at 1 µM (SRMS): 79% | remaining binding at 1 µM (LTK): 2% | remaining binding at 1 µM (p38-alpha): 26% | remaining binding at 1 µM (BRSK1): 96% | remaining binding at 1 µM [2]: 100% | remaining binding at 1 µM (SRPK1): 57% | remaining binding at 1 µM (PKN2): 100% | remaining binding at 1 µM (EGFR(L858R, T790M)): 59% | remaining binding at 1 µM (YSK4): 29% | remaining binding at 1 µM (EPHA1): 38% | remaining binding at 1 µM (PRKG1): 87% | remaining binding at 1 µM (SRC): 0% | remaining binding at 1 µM (JNK1): 96% | remaining binding at 1 µM (FLT3 (N841I)): 0% | remaining binding at 1 µM (BUB1): 97% | remaining binding at 1 µM (HUNK): 96% | remaining binding at 1 µM (CAMK1D): 93% | remaining binding at 1 µM (FLT3 (R834Q)): 2.1% | remaining binding at 1 µM (PDGFRA): 1.2% | remaining binding at 1 µM (LOK): 0% | remaining binding at 1 µM [3]: 0% | remaining binding at 1 µM (PFPK5(P.falciparum)): 77% | remaining binding at 1 µM (NDR1): 85% | remaining binding at 1 µM (KIT(V559D,T670I)): 5.5% | remaining binding at 1 µM (ALK(C1156Y)): 29% | remaining binding at 1 µM (AMPK-alpha2): 99%

CCN1CCN(Cc2cc(NC(=O)c3ccc(C)c(-c4ccc5nc(NC(=O)C6CC6)cn5n4)c3)cc(C(F)(F)F)c2)CC1 [Compound I-2, 3-(2-(cyclopropanecarboxamido)imidazo[1,2-b]pyridazin-6-yl)-N-(3-((4-ethylpiperazin-1-yl)methyl)-5-(trifluoromethyl)phenyl)-4-methylbenzamide]
remaining binding at 1 µM (FLT3 (K663Q)): 5.6% | remaining binding at 1 µM (MAST1): 94% | remaining binding at 1 µM [1]: 98% | remaining binding at 1 µM (VEGFR2): 1.4% | remaining binding at 1 µM (MAP3K1): 97% | remaining binding at 1 µM (CSNK1E): 86% | remaining binding at 1 µM (CAMK1G): 85% | remaining binding at 1 µM (EGFR(T790M)): 15% | remaining binding at 1 µM (STK35): 69% | remaining binding at 1 µM (PIK3CA(H1047Y)): 82% | remaining binding at 1 µM (MELK): 95% | remaining binding at 1 µM (SRMS): 86% | remaining binding at 1 µM (LTK): 3.3% | remaining binding at 1 µM (p38-alpha): 8.4% | remaining binding at 1 µM (BRSK1): 100% | remaining binding at 1 µM [2]: 78% | remaining binding at 1 µM (SRPK1): 85% | remaining binding at 1 µM (PKN2): 77% | remaining binding at 1 µM (EGFR(L858R, T790M)): 100% | remaining binding at 1 µM (YSK4): 30% | remaining binding at 1 µM (EPHA1): 44% | remaining binding at 1 µM (PRKG1): 100% | remaining binding at 1 µM (SRC): 0% | remaining binding at 1 µM (JNK1): 96% | remaining binding at 1 µM (FLT3 (N841I)): 0% | remaining binding at 1 µM (BUB1): 100% | remaining binding at 1 µM (HUNK): 80% | remaining binding at 1 µM (CAMK1D): 97% | remaining binding at 1 µM (FLT3 (R834Q)): 1.5% | remaining binding at 1 µM (PDGFRA): 1.1% | remaining binding at 1 µM (LOK): 0% | remaining binding at 1 µM [3]: 0% | selectivity for JAK3 over JAK2, JAK1, and TYK2 ([3]; KINOMEscan, 1 μM): more selective for JAK3 over JAK2, JAK1, and TYK2 | remaining binding at 1 µM (PFPK5(P.falciparum)): 91% | remaining binding at 1 µM (NDR1): 100% | remaining binding at 1 µM (KIT(V559D,T670I)): 6.6% | remaining binding at 1 µM (ALK(C1156Y)): 30% | remaining binding at 1 µM (AMPK-alpha2): 99%
